Test results from patent US20080009418A1, “Selective Inhibitors” (Alchemia LTD., priority 2004, published 2008).

Columns and labels:
Human κ-Opioid (KOP) = target: T1, Human κ-Opioid (KOP) (Homo sapiens, UniProt P41145); assay: Radioligand binding, human κ-opioid (KOP) membranes, filtration, [3H]-Diprenorphine; conditions: compound at 10 μM; [3H]-Diprenorphine, filtration
T1 construct: purchased Perkin Elmer Biosignal
In short: (§1)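 Percent inhibition of radioligand binding measured on recombinant human membranes: NK1 with [125I]-Substance P, KOP with [3H]-Diprenorphine. Incubation 1 h at room temperature, then harvest onto 0.3% PEI-soaked filters, cold Tris-HCl pH 7.4 washes and scintillation counting; non-specific binding from reference ligand wells.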

[1] = target: T2, Human neuropeptide Y (NPY-Y1) (Homo sapiens, UniProt P25929); assay: Radioligand binding, human neuropeptide Y NPY-Y1 membranes, FlashPlate, [125I]-PYY; conditions: compound at 10 μM; [125I]-PYY, FlashPlate
T2 construct: purchased Perkin Elmer Biosignal
T2 sequence (P25929 1-384): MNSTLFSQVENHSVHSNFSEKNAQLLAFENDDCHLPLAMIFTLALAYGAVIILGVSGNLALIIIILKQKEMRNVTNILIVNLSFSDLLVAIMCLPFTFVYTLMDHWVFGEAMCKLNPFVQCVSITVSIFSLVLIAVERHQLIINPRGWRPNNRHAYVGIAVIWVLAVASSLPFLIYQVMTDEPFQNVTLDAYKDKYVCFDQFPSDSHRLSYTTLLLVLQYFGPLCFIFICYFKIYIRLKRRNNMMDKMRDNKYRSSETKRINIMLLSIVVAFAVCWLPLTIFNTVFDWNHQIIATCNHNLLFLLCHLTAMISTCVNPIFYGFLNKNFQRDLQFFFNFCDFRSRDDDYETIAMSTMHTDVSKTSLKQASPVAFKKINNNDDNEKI
In short: (§2)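 Cloned human receptor membranes were coated onto FlashPlate wells and incubated with radioligand and compound (added from a 0.5 mM DMSO daughter plate) for 1 hour at room temperature in the dark. Scintillation counting gave percent inhibition, with DMSO defining total and reference ligand defining non-specific binding.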

Human neurokinin (NK1) = target: T3, Human neurokinin (NK1) (Homo sapiens, UniProt P25103); assay: Radioligand binding, human neurokinin NK1 membranes, filtration, [125I]-Substance P; conditions: compound at 10 μM; [125I]-Substance P, filtration
T3 construct: purchased Perkin Elmer Biosignal
T3 sequence (P25103 whole entry): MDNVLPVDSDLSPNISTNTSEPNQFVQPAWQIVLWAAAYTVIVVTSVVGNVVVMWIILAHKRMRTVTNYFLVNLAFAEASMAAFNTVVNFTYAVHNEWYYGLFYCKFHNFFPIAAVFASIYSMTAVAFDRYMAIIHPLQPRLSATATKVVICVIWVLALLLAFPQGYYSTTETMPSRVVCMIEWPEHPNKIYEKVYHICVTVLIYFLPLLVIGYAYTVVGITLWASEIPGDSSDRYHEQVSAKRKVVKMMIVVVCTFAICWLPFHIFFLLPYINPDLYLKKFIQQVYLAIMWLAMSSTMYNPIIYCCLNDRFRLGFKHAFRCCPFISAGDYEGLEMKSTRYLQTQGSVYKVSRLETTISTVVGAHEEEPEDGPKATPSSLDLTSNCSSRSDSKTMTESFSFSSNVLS
In short: as §1

[2] = target: T4, Human melanin-concentrating hormone (MCH1) (Homo sapiens, UniProt Q99705); assay: Radioligand binding, human melanin-concentrating hormone MCH1 membranes, FlashPlate, [125I]-S36057; conditions: compound at 10 μM; [125I]-S36057, FlashPlate
T4 construct: purchased Perkin Elmer Biosignal
T4 sequence (Q99705 whole entry): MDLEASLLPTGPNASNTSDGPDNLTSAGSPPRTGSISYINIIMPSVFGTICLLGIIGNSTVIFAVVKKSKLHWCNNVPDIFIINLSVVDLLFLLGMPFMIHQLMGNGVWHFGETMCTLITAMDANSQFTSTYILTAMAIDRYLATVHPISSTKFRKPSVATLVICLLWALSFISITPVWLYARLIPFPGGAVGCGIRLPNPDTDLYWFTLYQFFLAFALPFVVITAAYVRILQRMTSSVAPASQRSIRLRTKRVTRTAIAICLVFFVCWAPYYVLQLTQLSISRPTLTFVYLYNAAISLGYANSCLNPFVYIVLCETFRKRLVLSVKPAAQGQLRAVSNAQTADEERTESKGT
In short: as §2

Human Melanocortin (MC3) = target: T5, Human Melanocortin (MC3) (Homo sapiens, UniProt P41968); assay: Radioligand binding, human melanocortin MC3 membranes, FlashPlate, [125I]-NDP-αMSH; conditions: compound at 10 μM; [125I]-NDP-αMSH, FlashPlate
T5 construct: purchased Perkin Elmer Biosignal
T5 sequence (P41968 whole entry): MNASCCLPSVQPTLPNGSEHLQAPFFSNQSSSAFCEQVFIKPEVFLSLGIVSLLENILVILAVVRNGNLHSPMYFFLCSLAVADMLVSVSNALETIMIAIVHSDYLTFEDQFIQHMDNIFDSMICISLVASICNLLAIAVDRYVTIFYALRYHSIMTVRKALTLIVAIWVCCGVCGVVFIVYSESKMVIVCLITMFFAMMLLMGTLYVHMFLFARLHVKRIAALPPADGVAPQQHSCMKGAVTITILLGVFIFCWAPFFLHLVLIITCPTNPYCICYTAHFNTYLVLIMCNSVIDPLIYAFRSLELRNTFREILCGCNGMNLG
In short: as §2

Human melanocortin (MC5) = target: T6, Human melanocortin (MC5) (Homo sapiens, UniProt P33032); assay: Radioligand binding, human melanocortin MC5 membranes, FlashPlate, [125I]-NDP-αMSH; conditions: compound at 10 μM; [125I]-NDP-αMSH, FlashPlate
T6 construct: purchased Perkin Elmer Biosignal
T6 sequence (P33032 whole entry): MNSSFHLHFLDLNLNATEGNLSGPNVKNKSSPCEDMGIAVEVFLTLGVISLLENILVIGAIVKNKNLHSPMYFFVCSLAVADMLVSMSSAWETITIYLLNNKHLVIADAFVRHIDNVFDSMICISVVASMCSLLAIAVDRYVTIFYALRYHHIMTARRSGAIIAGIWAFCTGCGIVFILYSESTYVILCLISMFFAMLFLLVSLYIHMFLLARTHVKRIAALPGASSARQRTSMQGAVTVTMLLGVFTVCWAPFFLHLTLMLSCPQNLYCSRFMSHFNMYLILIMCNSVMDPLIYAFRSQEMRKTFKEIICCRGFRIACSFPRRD
In short: as §2

Human δ-opioid (DOP) = target: T7, Human δ-opioid (DOP) (Homo sapiens, UniProt P41143); assay: Radioligand binding, human δ-opioid (DOP) membranes, FlashPlate, [3H]-Bremazocine; conditions: compound at 10 μM; [3H]-Bremazocine, FlashPlate
T7 construct: purchased Perkin Elmer Biosignal
T7 sequence (P41143 whole entry): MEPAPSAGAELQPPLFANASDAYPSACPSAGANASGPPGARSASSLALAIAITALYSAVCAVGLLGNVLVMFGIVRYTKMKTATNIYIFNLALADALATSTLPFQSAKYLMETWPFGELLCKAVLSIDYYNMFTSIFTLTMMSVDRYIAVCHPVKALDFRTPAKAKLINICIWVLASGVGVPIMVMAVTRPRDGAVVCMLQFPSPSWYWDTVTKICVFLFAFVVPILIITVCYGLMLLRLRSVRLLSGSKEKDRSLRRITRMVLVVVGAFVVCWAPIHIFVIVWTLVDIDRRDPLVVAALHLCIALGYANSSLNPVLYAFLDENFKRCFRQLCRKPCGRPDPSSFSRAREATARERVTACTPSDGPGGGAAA
In short: as §2

Human Melanocortin (MC4) = target: T8, Human Melanocortin (MC4) (Homo sapiens, UniProt P32245); assay: Radioligand binding, human melanocortin MC4 membranes, FlashPlate, [125I]-NDP-αMSH; conditions: compound at 10 μM; [125I]-NDP-αMSH, FlashPlate
T8 construct: purchased Perkin Elmer Biosignal
T8 sequence (P32245 whole entry): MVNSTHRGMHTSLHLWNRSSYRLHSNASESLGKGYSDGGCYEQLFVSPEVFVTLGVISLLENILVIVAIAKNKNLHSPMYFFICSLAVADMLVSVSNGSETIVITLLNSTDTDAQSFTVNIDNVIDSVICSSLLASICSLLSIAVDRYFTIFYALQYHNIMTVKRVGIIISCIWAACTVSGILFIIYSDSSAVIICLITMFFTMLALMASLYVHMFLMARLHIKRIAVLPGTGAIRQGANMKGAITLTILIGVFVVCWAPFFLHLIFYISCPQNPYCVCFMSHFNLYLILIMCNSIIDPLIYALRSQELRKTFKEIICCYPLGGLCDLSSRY
In short: as §2

Human opioid (ORL1) = target: T9, Human opioid (ORL1) (Homo sapiens, UniProt P41146); assay: Radioligand binding, human opioid ORL1 membranes, FlashPlate, [125I]-Nociceptin; conditions: compound at 10 μM; [125I]-Nociceptin, FlashPlate
T9 construct: purchased Perkin Elmer Biosignal
T9 sequence (P41146 whole entry): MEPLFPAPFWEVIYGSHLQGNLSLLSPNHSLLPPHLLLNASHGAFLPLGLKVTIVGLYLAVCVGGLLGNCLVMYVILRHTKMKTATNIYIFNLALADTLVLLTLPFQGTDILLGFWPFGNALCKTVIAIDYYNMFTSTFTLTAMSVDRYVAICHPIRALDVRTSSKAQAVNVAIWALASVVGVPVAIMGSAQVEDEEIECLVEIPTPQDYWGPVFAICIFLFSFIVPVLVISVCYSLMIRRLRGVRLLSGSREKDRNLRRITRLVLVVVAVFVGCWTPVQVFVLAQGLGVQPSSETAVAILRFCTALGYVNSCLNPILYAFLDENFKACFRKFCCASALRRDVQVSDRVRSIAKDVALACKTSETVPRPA
In short: as §2

Mouse urotensin (mUR2) = target: T10, Mouse urotensin (mUR2) (Mus musculus, UniProt Q8VIH9); assay: Radioligand binding, mouse urotensin mUR2 membranes, FlashPlate, [125I]-Urotensin II; conditions: compound at 10 μM; [125I]-Urotensin II, FlashPlate
T10 construct: purchased Perkin Elmer Biosignal
T10 sequence (Q8VIH9 1-385): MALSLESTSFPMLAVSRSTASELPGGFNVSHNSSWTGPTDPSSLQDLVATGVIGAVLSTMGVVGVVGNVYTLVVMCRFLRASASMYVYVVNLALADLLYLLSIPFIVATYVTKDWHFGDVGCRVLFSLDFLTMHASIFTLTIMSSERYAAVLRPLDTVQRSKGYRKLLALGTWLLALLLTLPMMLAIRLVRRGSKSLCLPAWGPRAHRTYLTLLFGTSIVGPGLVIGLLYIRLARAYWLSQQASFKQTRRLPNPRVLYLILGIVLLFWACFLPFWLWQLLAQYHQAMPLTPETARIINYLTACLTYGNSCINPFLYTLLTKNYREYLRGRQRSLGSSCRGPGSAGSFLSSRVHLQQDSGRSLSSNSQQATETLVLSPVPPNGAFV
In short: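 Cloned mouse urotensin (mUR2) receptor membranes from Perkin Elmer Biosignal were immobilized in FlashPlate microplates using a proprietary coating. Each well got 19.5 μl buffer, then 0.5 μl of DMSO, reference ligand, or compound. Adding 5 μl of [125I]-Urotensin II, diluted to 5× final concentration in binding buffer, started binding. Plates were sealed with TopSeal-A and incubated 1 hour at room temperature in the dark. Wells were counted for 30 seconds each on a TopCount after a 60-second delay, and percentage inhibition was calculated.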

Human μ-opioid (MOP) = target: T11, Human μ-opioid (MOP) (Homo sapiens, UniProt P35372); assay: Radioligand binding, human μ-opioid (MOP) membranes, FlashPlate, [3H]-Naloxone; conditions: compound at 10 μM; [3H]-Naloxone, FlashPlate
T11 construct: purchased Perkin Elmer Biosignal
T11 sequence (P35372 whole entry): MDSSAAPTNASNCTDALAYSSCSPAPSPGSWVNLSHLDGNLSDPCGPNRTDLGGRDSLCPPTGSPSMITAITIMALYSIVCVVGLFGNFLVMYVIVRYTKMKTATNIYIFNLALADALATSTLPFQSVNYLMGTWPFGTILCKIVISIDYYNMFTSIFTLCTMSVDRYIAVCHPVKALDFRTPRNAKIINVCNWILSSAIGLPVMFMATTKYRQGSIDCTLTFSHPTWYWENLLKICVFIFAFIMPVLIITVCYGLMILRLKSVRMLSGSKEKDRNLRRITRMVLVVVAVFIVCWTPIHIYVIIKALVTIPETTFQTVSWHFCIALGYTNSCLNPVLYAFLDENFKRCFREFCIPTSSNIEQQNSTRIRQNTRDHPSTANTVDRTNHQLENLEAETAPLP
In short: as §2

T1 sequence (P41145 whole entry): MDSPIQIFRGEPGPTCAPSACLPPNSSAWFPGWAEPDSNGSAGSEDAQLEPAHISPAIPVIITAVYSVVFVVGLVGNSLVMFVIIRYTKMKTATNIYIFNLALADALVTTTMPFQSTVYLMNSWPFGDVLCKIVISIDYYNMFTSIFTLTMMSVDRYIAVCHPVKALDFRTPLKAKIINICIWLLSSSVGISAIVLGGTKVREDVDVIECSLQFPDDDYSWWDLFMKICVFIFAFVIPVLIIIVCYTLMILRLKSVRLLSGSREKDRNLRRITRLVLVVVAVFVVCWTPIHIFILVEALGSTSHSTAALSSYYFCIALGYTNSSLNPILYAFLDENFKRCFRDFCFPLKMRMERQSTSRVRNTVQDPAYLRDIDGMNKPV

Row | SMILES | A2: inhibition of radioligand binding (Human κ-Opioid (KOP)) | A9: inhibition of radioligand binding [1] | A8: inhibition of radioligand binding (Human neurokinin (NK1)) | A6: inhibition of radioligand binding [2] | A3: inhibition of radioligand binding (Human Melanocortin (MC3)) | A5: inhibition of radioligand binding (Human melanocortin (MC5)) | A1: inhibition of radioligand binding (Human δ-opioid (DOP)) | A4: inhibition of radioligand binding (Human Melanocortin (MC4)) | A10: inhibition of radioligand binding (Human opioid (ORL1)) | A11: inhibition of radioligand binding (Mouse urotensin (mUR2)) | A7: inhibition of radioligand binding (Human μ-opioid (MOP))
1 | COCC1OC(OCc2ccc3ccccc3c2)C(NC(=O)CCCNC(=N)N)C(OCc2ccc3ccccc3c2)C1O (stereo not drawn) [compound 250] | − (“−” indicates less than 50% inhibition at 10 μM) | − (“−” indicates less than 50% inhibition at 10 μM) | + (“+” indicates greater than 50% inhibition at 10 μM) | + (“+” indicates greater than 50% inhibition at 10 μM) | − (“−” indicates less than 50% inhibition at 10 μM) | + (“+” indicates greater than 50% inhibition at 10 μM) | − (“−” indicates less than 50% inhibition at 10 μM) | + (“+” indicates greater than 50% inhibition at 10 μM) | + (“+” indicates greater than 50% inhibition at 10 μM) | − (“−” indicates less than 50% inhibition at 10 μM) | − (“−” indicates less than 50% inhibition at 10 μM)
2 | CSC1OC(COCc2ccccc2)C(O)C(OCc2ccccc2)C1NC(=O)CCNC(=N)N (stereo not drawn) [compound 251] | − (“−” indicates less than 50% inhibition at 10 μM) | − (“−” indicates less than 50% inhibition at 10 μM) | + (“+” indicates greater than 50% inhibition at 10 μM) | − (“−” indicates less than 50% inhibition at 10 μM) | − (“−” indicates less than 50% inhibition at 10 μM) | − (“−” indicates less than 50% inhibition at 10 μM) | − (“−” indicates less than 50% inhibition at 10 μM) | − (“−” indicates less than 50% inhibition at 10 μM) | − (“−” indicates less than 50% inhibition at 10 μM) | − (“−” indicates less than 50% inhibition at 10 μM) | − (“−” indicates less than 50% inhibition at 10 μM)
3 | CSC1OC(COCc2ccccc2)C(O)C(OCc2ccccc2)C1NC(=O)CCCNC(=N)N (stereo not drawn) [compound 252] | − (“−” indicates less than 50% inhibition at 10 μM) | − (“−” indicates less than 50% inhibition at 10 μM) | + (“+” indicates greater than 50% inhibition at 10 μM) | − (“−” indicates less than 50% inhibition at 10 μM) | − (“−” indicates less than 50% inhibition at 10 μM) | − (“−” indicates less than 50% inhibition at 10 μM) | − (“−” indicates less than 50% inhibition at 10 μM) | − (“−” indicates less than 50% inhibition at 10 μM) | − (“−” indicates less than 50% inhibition at 10 μM) | − (“−” indicates less than 50% inhibition at 10 μM) | − (“−” indicates less than 50% inhibition at 10 μM)
4 | CSC1OC(COCc2ccc(Cl)cc2)C(O)C(OCc2ccccc2)C1NC(=O)CNC(=N)N (stereo not drawn) [compound 253] | − (“−” indicates less than 50% inhibition at 10 μM) | − (“−” indicates less than 50% inhibition at 10 μM) | + (“+” indicates greater than 50% inhibition at 10 μM) | − (“−” indicates less than 50% inhibition at 10 μM) | − (“−” indicates less than 50% inhibition at 10 μM) | + (“+” indicates greater than 50% inhibition at 10 μM) | − (“−” indicates less than 50% inhibition at 10 μM) | − (“−” indicates less than 50% inhibition at 10 μM) | − (“−” indicates less than 50% inhibition at 10 μM) | − (“−” indicates less than 50% inhibition at 10 μM) | − (“−” indicates less than 50% inhibition at 10 μM)
5 | CSC1OC(COCc2ccc(Cl)cc2)C(O)C(OCc2ccccc2)C1NC(=O)CCNC(=N)N (stereo not drawn) [compound 254] | − (“−” indicates less than 50% inhibition at 10 μM) | − (“−” indicates less than 50% inhibition at 10 μM) | + (“+” indicates greater than 50% inhibition at 10 μM) | − (“−” indicates less than 50% inhibition at 10 μM) | − (“−” indicates less than 50% inhibition at 10 μM) | − (“−” indicates less than 50% inhibition at 10 μM) | − (“−” indicates less than 50% inhibition at 10 μM) | − (“−” indicates less than 50% inhibition at 10 μM) | − (“−” indicates less than 50% inhibition at 10 μM) | − (“−” indicates less than 50% inhibition at 10 μM) | − (“−” indicates less than 50% inhibition at 10 μM)
6 | CSC1OC(COCc2ccc(-c3ccccc3)cc2)C(O)C(OCc2ccccc2)C1NC(=O)CNC(=N)N (stereo not drawn) [compound 255] | − (“−” indicates less than 50% inhibition at 10 μM) | − (“−” indicates less than 50% inhibition at 10 μM) | + (“+” indicates greater than 50% inhibition at 10 μM) | − (“−” indicates less than 50% inhibition at 10 μM) | − (“−” indicates less than 50% inhibition at 10 μM) | + (“+” indicates greater than 50% inhibition at 10 μM) | − (“−” indicates less than 50% inhibition at 10 μM) | + (“+” indicates greater than 50% inhibition at 10 μM) | − (“−” indicates less than 50% inhibition at 10 μM) | − (“−” indicates less than 50% inhibition at 10 μM) | − (“−” indicates less than 50% inhibition at 10 μM)
